pEC50: −log10 of the molar value.
Biological target: T1, human PPARalpha (Homo sapiens, UniProt Q07869)
T1 construct: amino acids S167-Y468; expressed in transfected cells; host or cells: HEK (human embryo kidney) cells, stably transfected, pcDNA3 vector
T1 sequence (Q07869 167-468): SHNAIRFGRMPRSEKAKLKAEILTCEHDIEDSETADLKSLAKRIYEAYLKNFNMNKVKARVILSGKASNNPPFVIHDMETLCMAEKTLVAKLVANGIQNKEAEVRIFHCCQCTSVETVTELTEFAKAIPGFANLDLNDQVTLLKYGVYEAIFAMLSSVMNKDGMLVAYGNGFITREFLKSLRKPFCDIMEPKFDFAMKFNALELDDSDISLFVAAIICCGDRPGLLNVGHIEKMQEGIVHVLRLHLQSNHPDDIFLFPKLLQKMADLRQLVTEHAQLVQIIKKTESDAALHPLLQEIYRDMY
Assay: cellular PPARalpha assay (stably transfected HEK luciferase reporter cell line)
Assay type: cell-based
Protocol: The activity of the compounds was tested by a determination of EC50 values of PPAR agonists in the cellular PPARalpha assay. The potency of substances which bind to human PPARalpha and activate it in an agonistic manner is analyzed using a stably transfected HEK cell line (HEK=human embryo kidney) which is referred to here as PPARalpha reporter cell line. It contains two genetic elements, a luciferase reporter element (pdeltaM-GAL4-Luc-Zeo) and a PPARalpha fusion protein (GR-GAL4-humanPPARalpha-LBD) which mediates expression of the luciferase reporter element depending on a PPARalpha ligand. The stably and constitutively expressed fusion protein GR-GAL4-humanPPARalpha-LBD binds in the cell nucleus of the PPARalpha reporter cell line via the GAL4 protein portion to the GAL4 DNA binding motifs 5′-upstream of the luciferase reporter element which is stably integrated in the genome of the cell line. There is only weak expression of the luciferase reporter gene in the absence of a PPARalpha ligand if fatty acid-depleted fetal calf serum (cs-FCS) is used in the assay. PPARalpha ligands bind and activate the PPARalpha fusion protein and thereby stimulate the expression of the luciferase reporter gene. The luciferase which is formed can be detected by means of chemiluminescence via an appropriate substrate.
The PPARalpha reporter cell line was prepared in two stages. Firstly, the luciferase reporter element was constructed and stably transfected into HEK cells. For this purpose, five binding sites of the yeast transcription factor GAL4 (Accession # AF264724) were cloned in 5′-upstream of a 68 bp-long minimal MMTV promoter (Accession #V01175). The minimal MMTV promoter section contains a […] and a TATA element in order to enable efficient transcription by RNA polymerase II. The cloning and sequencing of the GAL4-MMTV construct took place in analogy to the description of Sambrook J. et. al. (Molecular cloning, Cold Spring Harbor Laboratory Press, 1989). Then the complete Photinus pyralis gene (Accession #M15077) was cloned in 3′-downstream of the GAL4-MMTV element. After sequencing, the luciferase reporter element consisting of five GAL4 binding sites, MMTV promoter and luciferase gene was recloned into a plasmid which confers zeocin resistance in order to obtain the plasmid pdeltaM-GAL4-Luc-Zeo. This vector was transfected into HEK cells in accordance with the statements in Ausubel, F. M. et al. (Current protocols in molecular biology, Vol. 1-3, John Wiley & Sons, Inc., 1995).
In a second step, the PPARalpha fusion protein (GR-GAL4-humanPPARalpha-LBD was introduced into the stable cell clone described. For this purpose, initially the cDNA coding for the N-terminal 76 amino acids of the glucocorticoid receptor (Accession #P04150) was linked to the cDNA section coding for amino acids 1-147 of the yeast transcription factor GAL4 (Accession #P04386). The cDNA of the ligand-binding domain of the human PPARalpha receptor (amino acids S167-Y468; Accession #S74349) was cloned in at the 3′-end of this GR-GAL4 construct. The fusion construct prepared in this way (GR-GAL4-humanPPARalpha-LBD) was recloned into the plasmid pcDNA3 (Invitrogen) in order to enable constitutive expression therein by the cytomegalovirus promoter. This plasmid was linearized with a restriction endonuclease and stably transfected into the previously described cell clone containing the luciferase reporter element. The finished PPARalpha reporter cell line which contains a luciferase reporter element and constitutively expresses the PPARalpha fusion protein (GR-GAL4-human PPARalpha-LBD) was isolated by selection with zeocin (0.5 mg/ml) and G418 (0.5 mg/ml).
Assay procedure.—The activity of PPARalpha agonists is determined in a 3-day assay which is described below: […]

SMILES	pEC50
Cc1nc(-c2ccc(C(F)(F)F)cc2)sc1COc1ccc(S(=O)(=O)Nc2nnc(C(C)C)s2)cc1 [Example 1, N-(5-Isopropyl-[1,3,4]thiadiazol-2-yl)-4-[4-methyl-2-(4-trifluoromethyl-phenyl)-thiazol-5-ylmethoxy]-benzenesulfonamide]	5.54
COc1ccc2c(COc3ccc(S(=O)(=O)Nc4nnc(C(C)C)s4)cc3)coc2c1 [Example 3, N-(5-Isopropyl-[1,3,4]thiadiazol-2-yl)-4-(6-methoxy-benzofuran-3-ylmethoxy)-benzenesulfonamide]	5.34
CC(C)c1nnc(NS(=O)(=O)c2ccc(OCc3ccc(Oc4ccc(C(F)(F)F)cc4)cc3)cc2)s1 [Example 4, N-(5-Isopropyl-[1,3,4]thiadiazol-2-yl)-4-[4-(4-trifluoromethyl-phenoxy)-benzyloxy]-benzenesulfonamide]	6.27

Second part, the compound after the results:

pEC50	SMILES
5.85	COc1ccc(-c2nc(COc3ccc(S(=O)(=O)Nc4nnc(C(C)C)s4)cc3)no2)cc1 [Example 9, N-(5-Isopropyl-[1,3,4]thiadiazol-2-yl)-4-[5-(4-methoxy-phenyl)-[1,2,4]oxadiazol-3-ylmethoxy]-benzenesulfonamide]
6.72	CCc1oc(-c2cccc(C(F)(F)F)c2)nc1COc1ccc(S(=O)(=O)Nc2nnc(C(C)C)s2)cc1 [Example 14, 4-[5-Ethyl-2-(3-trifluoromethyl-phenyl)-oxazol-4-ylmethoxy]-N-(5-isopropyl-[1,3,4]thiadiazol-2-yl)-benzenesulfonamide]
5.92	COc1ccc(-c2nc(COc3ccc(S(=O)(=O)Nc4nnc(C(C)C)s4)cc3)co2)cc1 [Example 13, N-(5-Isopropyl-[1,3,4]thiadiazol-2-yl)-4-[2-(4-methoxy-phenyl)-oxazol-4-ylmethoxy]-benzenesulfonamide]
